Structures are written as SMILES.

The results in this text go back to patent US8263044B2, “Stilbene like compounds as novel HDAC inhibitors” (Orchid Research Laboratories Limited, priority 2005, dated 2012).

Series [1] concerns NCIH460, HCT116, MDAMB231/U251. Description: Anti-cancer screen, mean GI50 over the cell lines. In kind it is cell-based. To be noted: mean over the three cell lines; no unit in table.
The test system of the next series is HCT 116 cells. The experiment in a line: cells. Particulars: Homo sapiens, HCT-116, 48 h; for GI50: read-out: HCT116 GI50; for CC50: read-out: HCT116 LC50.
The next series relates to NCIH 460 cells. Description: cells. Particulars: Homo sapiens, NCI-H460, 48 h; for GI50: read-out: NCIH460 GI50; for CC50: read-out: NCIH460 LC50.
In series [2] the test system is MDAMB231/U251. The experiment in a line: cells. Particulars: 48 h, read-out: MDAMB231/U251 GI50.
Series [3] has as its system MDAMB231/U251. The experiment in a line: cells. Particulars: 48 h, read-out: MDAMB231/U251 LC50.
Series [4] relates to HDAC activity (Mouse Liver Extract). Description: Histone Deacetylase (HDAC) Inhibition Assay using Boc-Lys (Ac)-AMC Substrate. In kind it is biochemical. Particulars: mouse liver enzyme; for HDAC Inhibition 1 μM: inhibitor at 1 μM; for HDAC Inhibition 1 μM / HDAC Inhibition 10 μM: in % (unit assumed); for HDAC Inhibition 10 μM: inhibitor at 10 μM. In outline:
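Mouse liver extract (diluted 1:6) was preincubated with inhibitor for 5 min at 30° C, then reacted with Boc-Lys(Ac)-AMC for 30 min at 30° C. Trypsin stop solution was added for 20–30 min to release AMC, read by fluorescence at ex 360/365 nm and em 440/460 nm with buffer-plus-substrate blank subtracted.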

Consider `Cc1ncsc1C=C(C(=O)NCCCCCC(=O)NO)c1ccc(Cl)cc1` (stereo in doubt) [Example 12, (2Z)-3-(4-Methyl-1,3-thiazol-5-yl)-2-(4-chlorophenyl)-N-[6-(hydroxyamino)-6-oxohexyl]acrylamide], for which the melting point was 78.5 to 79 °C.
The same measure, in the same setting: for `O=C(CCCCCNC(=O)/C(=C\c1ccc(F)c(Cl)c1)c1ccc(F)cc1)NO` [Example 10, (2Z)-3-(3-Chloro,4-fluorophenyl)-2-(4-fluorophenyl)-N-[6-(hydroxyamino)-6-oxohexyl]acrylamide] the value was 163.8 to 164.3 °C.
For the compound `COc1cc(/C=C(\C(=O)NCCCCCC(=O)NO)c2ccc(O)cc2)cc(OC)c1` [Example 11, (2Z)-3-(3,5-dimethoxyphenyl)-2-(4-hydroxyphenyl)-N-[6-(hydroxyamino)-6-oxohexyl]acrylamide], the melting point fell in the range of 144.1 to 144.6 °C.
Still for that read-out and setting: the same measure for `O=C(CCCCCNC(=O)/C(=C\c1ccc(F)c(F)c1)c1ccc(F)cc1)NO` [Example 21]: 135.8 to 139.4 °C; for `O=C(CCCCCNC(=O)/C(=C\c1ccc(F)c(C(F)(F)F)c1)c1ccc(C(F)(F)F)cc1)NO` [Example 22, (2Z)-3-(4-Fluoro-3-trifluoromethyl-phenyl)-2-(4-trifluoromethylphenyl)-N-[6-(hydroxyamino)-6-oxohexyl]acrylamide]: 95.1 to 103.6 °C; for `COc1cc(/C=C(\C(=O)NCCCCCC(=O)NOCc2ccccc2)c2ccc(F)cc2)cc(OC)c1` [Example 33]: 79.9 to 86.7 °C.
On the same count and under the same terms, the same measure for `O=C(CCCCCNC(=O)/C(=C\c1ccc(F)c(Cl)c1)c1ccc(O)cc1)NO` [Example 42, (2Z)-3-(3-Chloro-4-fluorophenyl)-2-(4-hydroxyphenyl)-N-[6-(hydroxyamino)-6-oxohexyl]acrylamide]: 100.3 to 103.9 °C; for `O=C(CCCCCNC(=O)/C(=C\c1ccc(Cl)s1)c1ccc(F)cc1)NO` [Example 44, (2Z)-3-(5-Chlorothiophen-2-yl)-2-(4-fluorophenyl)-N-[6-(hydroxyamino)-6-oxohexyl]acrylamide]: 181 to 185.2 °C.
For the compound `COc1cc(/C=C(\C(=O)NCCCCCC(=O)NO)c2ccc(F)cc2)ccc1O` [Example 46, (2Z)-3-(4-Hydroxy-3-methoxyphenyl)-2-(4-fluorophenyl)-N-[6-(hydroxyamino)-6-oxohexyl]acrylamide], the GI50 was 5 µM in series [1], 7 µM in the series with HCT 116 cells, 5 µM in the series on NCIH 460 cells and 3.5 µM in the series with MDAMB231/U251 [2]. The CC50 in the series on HCT 116 cells, with NCIH 460 cells and in the series on MDAMB231/U251 [3] was above 100 µM throughout. Moreover, in series [4], the “HDAC Inhibition 1 μM” value is 60.53. Besides, the “HDAC Inhibition 10 μM” value in series [4] was 70.82.
As for `O=C(CCCCCNC(=O)/C(=C\c1ccc(C(F)(F)F)cc1)c1ccc(F)cc1)NO` [Example 47, (2Z)-3-(4-Trifluoromethylphenyl)-2-(4-fluorophenyl)-N-[6-(hydroxyamino)-6-oxohexyl]acrylamide], the GI50 in series [1] was 9.8 µM; in the series with HCT 116 cells, 9 µM; in the series on NCIH 460 cells, 13 µM; in the series on MDAMB231/U251 [2], 7.5 µM. Further, the figures for the CC50 in the series on HCT 116 cells, in the series with NCIH 460 cells and in the series with MDAMB231/U251 [3] were 95 µM, 98 µM and above 100 µM, respectively. In addition, the “HDAC Inhibition 1 μM” value in series [4] was 49.92. Also, in series [4], the “HDAC Inhibition 10 μM” value was 87.19.
With `COc1cc(/C=C(\C(=O)NCCCCCC(=O)NO)c2ccc(F)cc2)cc(OC)c1OC` [Example 48, (2Z)-3-(3,4,5-Trimethoxyphenyl)-2-(4 fluorophenyl)-N-[6-(hydroxyamino)-6-oxohexyl]acrylamide], the melting point is 153 to 157 °C.
`CC(=O)N(O)C(=O)CCCCCNC(=O)/C(=C\c1ccc(Cl)o1)c1ccc(F)cc1` [Example 53, N-Acetyl-6-{[(2Z)-3-(5-chloro-2-furyl)-2-(4-fluorophenyl)-acrylamide]}-N-hydroxyhexanamide]: the GI50 in series [1] amounted to 7.7 µM; in the series on HCT 116 cells, 5 µM; in the series with NCIH 460 cells, 13 µM; in the series on MDAMB231/U251 [2] it was 5 µM. In addition, the CC50 was found to be 65 µM with HCT 116 cells, 75 µM with NCIH 460 cells and 70 µM with MDAMB231/U251 [3]. Also, the “HDAC Inhibition 1 μM” value in series [4] worked out at 69.80. In series [4], the “HDAC Inhibition 10 μM” value is listed as 95.25. In series [4], the half-maximal inhibitory concentration (IC50) was 0.06 µM.
With `CSc1ccc(/C=C(\C(=O)NCCCCCC(=O)NC(Cc2ccc(O)cc2)C(=O)NO)c2ccc(F)cc2)cc1` (stereo not drawn) [Example 54], the melting point is 142.1 to 145.4 °C.
The compound `COc1c(F)c(F)c(/C(=C/c2ccc(F)cc2)C(=O)NCCCCCC(=O)NC(Cc2ccc(O)cc2)C(=O)NO)c(F)c1F` (stereo not drawn) [Example 56] showed a melting point of 162.4 to 165.2 °C.

By melting point is commonly meant the temperature of the solid-liquid transition. One may read the IC50 as the midpoint of a concentration-inhibition curve. Read a high IC50 as weaker potency in that assay.
